# Measurements published in PubChem BioAssay (NCI).
#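 The concentration for 50% growth inhibition is given as GI50. Definition used: TGI = concentration required for complete inhibition of growth.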
# Legend:
# Assay in all cases: NCI-60 cell line screen, 384-well format
# [1] = tested on: A498 renal
# [2] = tested on: A549 NSCLC
# [3] = tested on: ACHN renal
# [4] = tested on: BT-549 breast
# [5] = tested on: CAKI-1 renal
# [6] = tested on: COLO 205 colon
# [7] = tested on: DU-145 prostate
# [8] = tested on: EKVX NSCLC
# [9] = tested on: HCC-2998 colon
# [10] = tested on: HCT-116 colon
# [11] = tested on: HCT-15 colon
# [12] = tested on: HL-60(TB) leukemia
# [13] = tested on: HOP-62 NSCLC
# [14] = tested on: HOP-92 NSCLC
# [15] = tested on: HS 578T breast
# [16] = tested on: HT29 colon
# [17] = tested on: IGROV1 ovarian
# [18] = tested on: KM12 colon
# [19] = tested on: LOX IMVI melanoma
# [20] = tested on: M14 melanoma
# [21] = tested on: MALME-3M melanoma
# [22] = tested on: MCF7 breast
# [23] = tested on: MDA-MB-231 breast
# [24] = tested on: MDA-MB-435 melanoma
# [25] = tested on: MDA-MB-468 breast
# [26] = tested on: MOLT-4 leukemia
# [27] = tested on: NCI-H226 lung
# [28] = tested on: NCI-H23 lung
# [29] = tested on: NCI-H322M lung
# [30] = tested on: NCI-H460 NSCLC
# [31] = tested on: NCI-H522 lung
# [32] = tested on: NCI/ADR-RES ovarian
# [33] = tested on: OVCAR-3 ovarian
# [34] = tested on: OVCAR-4 ovarian
# [35] = tested on: OVCAR-5 ovarian
# [36] = tested on: OVCAR-8 ovarian
# [37] = tested on: PC-3 prostate
# [38] = tested on: RPMI-8226 leukemia
# [39] = tested on: RXF 393 renal
# [40] = tested on: SF-268 CNS
# [41] = tested on: SF-295 CNS
# [42] = tested on: SF-539 CNS
# [43] = tested on: SK-MEL-28 melanoma
# [44] = tested on: SK-MEL-5 melanoma
# [45] = tested on: SK-OV-3 ovarian
# [46] = tested on: SN12C renal
# [47] = tested on: SNB-19 CNS
# [48] = tested on: SNB-75 CNS
# [49] = tested on: SR leukemia
# [50] = tested on: T-47D breast
# [51] = tested on: TK-10 renal
# [52] = tested on: U251 glioblastoma
# [53] = tested on: UACC-257 melanoma
# [54] = tested on: UACC-62 melanoma
# [55] = tested on: 786-0 renal
# [56] = tested on: CCRF-CEM leukemia
# [57] = tested on: K-562 leukemia
# [58] = tested on: SW-620 colon
# [59] = tested on: UO-31 renal
structure (smiles),measurement,setting,value
COc1cccc2[nH]c3c4c(c5c(c3c12)C(=O)N(CN1CCN(C)CC1)C5=O)CCC4,GI50,[1],9.22 µM
same,TGI,[1],21.5 µM
same,GI50,[2],12.5 µM
same,TGI,[2],26.3 µM
same,GI50,[3],14.9 µM
same,TGI,[3],30.5 µM
same,GI50,[4],15.8 µM
same,TGI,[4],29.6 µM
same,GI50,[5],10.9 µM
same,TGI,[5],23.2 µM
same,GI50,[6],15.4 µM
same,TGI,[6],48.5 µM
same,GI50,[7],14.4 µM
same,TGI,[7],27.9 µM
same,GI50,[8],15.4 µM
same,TGI,[8],29.1 µM
same,GI50,[9],21 µM
same,TGI,[9],66.1 µM
same,GI50,[10],11.6 µM
same,TGI,[10],24.4 µM
same,GI50,[11],11.5 µM
same,TGI,[11],24.8 µM
same,GI50,[12],10.7 µM
same,TGI,[12],22.7 µM
same,GI50,[13],11.5 µM
same,TGI,[13],24 µM
same,GI50,[14],17.3 µM
same,TGI,[14],31.3 µM
same,GI50,[15],15 µM
same,TGI,[15],29 µM
same,GI50,[16],13.2 µM
same,TGI,[16],27.1 µM
same,GI50,[17],12.5 µM
same,TGI,[17],29.6 µM
same,GI50,[18],15.8 µM
same,TGI,[18],34.2 µM
same,GI50,[19],13.7 µM
same,TGI,[19],26.9 µM
same,GI50,[20],14.3 µM
same,TGI,[20],28.7 µM
same,GI50,[21],13.5 µM
same,TGI,[21],26.5 µM
same,GI50,[22],12.5 µM
same,TGI,[22],26.9 µM
same,GI50,[23],16.1 µM
same,TGI,[23],29.9 µM
same,GI50,[24],13.7 µM
same,TGI,[24],29.1 µM
same,GI50,[25],8.27 µM
same,TGI,[25],21.1 µM
same,GI50,[26],6.13 µM
same,TGI,[26],19.1 µM
same,GI50,[27],15.9 µM
same,TGI,[27],33.2 µM
same,GI50,[28],14 µM
same,TGI,[28],27.3 µM
same,GI50,[29],14.4 µM
same,TGI,[29],27.8 µM
same,GI50,[30],6.97 µM
same,TGI,[30],19.8 µM
same,GI50,[31],7.53 µM
same,TGI,[31],21.5 µM
same,GI50,[32],8.24 µM
same,TGI,[32],21 µM
same,GI50,[33],13.2 µM
same,TGI,[33],26.7 µM
same,GI50,[34],7.56 µM
same,TGI,[34],19.5 µM
same,GI50,[35],20.7 µM
same,TGI,[35],48.7 µM
same,GI50,[36],9.47 µM
same,TGI,[36],23.1 µM
same,GI50,[37],11.5 µM
same,TGI,[37],23.8 µM
same,GI50,[38],13.3 µM
same,TGI,[38],26.2 µM
same,GI50,[39],14.2 µM
same,TGI,[39],27.3 µM
same,GI50,[40],15.5 µM
same,TGI,[40],29.7 µM
same,GI50,[41],13.9 µM
same,TGI,[41],27.2 µM
same,GI50,[42],9.75 µM
same,TGI,[42],21.8 µM
same,GI50,[43],14.5 µM
same,TGI,[43],28.3 µM
same,GI50,[44],3.44 µM
same,TGI,[44],14.3 µM
same,GI50,[45],11.2 µM
same,TGI,[45],23.6 µM
same,GI50,[46],12.5 µM
same,TGI,[46],40.6 µM
same,GI50,[47],12.3 µM
same,TGI,[47],24.8 µM
same,GI50,[48],13 µM
same,TGI,[48],25.9 µM
same,GI50,[49],1.83 µM
same,TGI,[49],4.8 µM
same,GI50,[50],12.3 µM
same,TGI,[50],32 µM
same,GI50,[51],10.7 µM
same,TGI,[51],22.7 µM
same,GI50,[52],12.1 µM
same,TGI,[52],24.6 µM
same,GI50,[53],17.8 µM
same,TGI,[53],33 µM
same,GI50,[54],12.5 µM
same,TGI,[54],25.3 µM
CNC(=O)c1ccccc1Nc1cc(Nc2ccc(N3CCOCC3)cc2OC)ncc1C(F)(F)F,GI50,[55],2.75 µM
same,TGI,[55],19.8 µM
same,GI50,[1],11 µM
same,TGI,[1],28.3 µM
same,GI50,[2],0.371 µM
same,TGI,[2],13 µM
same,GI50,[3],5.62 µM
same,TGI,[3],69.7 µM
same,GI50,[4],2.82 µM
same,TGI,[4],9.86 µM
same,GI50,[5],6.33 µM
same,TGI,[5],21 µM
same,GI50,[56],0.722 µM
same,TGI,[56],11.5 µM
same,GI50,[6],0.309 µM
same,TGI,[6],1.85 µM
same,GI50,[7],1.97 µM
same,TGI,[7],24.3 µM
same,GI50,[8],0.653 µM
same,TGI,[8],11.8 µM
same,GI50,[9],0.654 µM
same,TGI,[9],15.8 µM
same,GI50,[10],0.632 µM
same,TGI,[10],13.2 µM
same,GI50,[11],2.88 µM
same,TGI,[11],34.2 µM
same,GI50,[12],0.375 µM
same,TGI,[12],1.43 µM
same,GI50,[13],2.62 µM
same,TGI,[13],51.3 µM
same,GI50,[14],1.02 µM
same,TGI,[14],10.2 µM
same,GI50,[15],2.78 µM
same,TGI,[15],10.1 µM
same,GI50,[16],0.416 µM
same,TGI,[16],14.1 µM
same,GI50,[17],0.229 µM
same,TGI,[17],12.4 µM
same,GI50,[57],2.69 µM
same,TGI,[57],> 100 µM
same,GI50,[18],0.523 µM
same,TGI,[18],8.06 µM
same,GI50,[19],1.23 µM
same,TGI,[19],12.1 µM
same,GI50,[20],0.233 µM
same,TGI,[20],11.1 µM
same,GI50,[21],0.303 µM
same,TGI,[21],15.1 µM
same,GI50,[22],0.447 µM
same,TGI,[22],18.5 µM
same,GI50,[23],2.76 µM
same,TGI,[23],49.2 µM
same,GI50,[24],0.752 µM
same,TGI,[24],> 100 µM
same,GI50,[26],0.969 µM
same,TGI,[26],10.5 µM
same,GI50,[27],0.876 µM
same,TGI,[27],> 100 µM
same,GI50,[28],0.277 µM
same,TGI,[28],9.47 µM
same,GI50,[29],5.28 µM
same,TGI,[29],46.2 µM
same,GI50,[30],0.316 µM
same,TGI,[30],10.6 µM
same,GI50,[31],0.877 µM
same,TGI,[31],20.4 µM
same,GI50,[32],1.52 µM
same,TGI,[32],4.64 µM
same,GI50,[33],4.45 µM
same,TGI,[33],37.9 µM
same,GI50,[34],16.1 µM
same,TGI,[34],> 100 µM
same,GI50,[35],0.66 µM
same,TGI,[35],27.5 µM
same,GI50,[36],4.08 µM
same,TGI,[36],19.8 µM
same,GI50,[37],15.9 µM
same,TGI,[37],> 100 µM
same,GI50,[38],0.35 µM
same,TGI,[38],3.3 µM
same,GI50,[39],2.82 µM
same,TGI,[39],14 µM
same,GI50,[40],0.143 µM
same,TGI,[40],1.67 µM
same,GI50,[41],2.12 µM
same,TGI,[41],38.7 µM
same,GI50,[42],1.7 µM
same,TGI,[42],16.8 µM
same,GI50,[43],2 µM
same,TGI,[43],16.7 µM
same,GI50,[44],0.767 µM
same,TGI,[44],18 µM
same,GI50,[45],5.44 µM
same,TGI,[45],41.9 µM
same,GI50,[46],3.31 µM
same,TGI,[46],27.1 µM
same,GI50,[47],10.9 µM
same,TGI,[47],> 100 µM
same,GI50,[48],4.25 µM
same,TGI,[48],21.4 µM
same,GI50,[58],0.658 µM
same,TGI,[58],12.6 µM
same,GI50,[50],9.99 µM
same,TGI,[50],23.3 µM
same,GI50,[51],7.3 µM
same,TGI,[51],32 µM
same,GI50,[52],4.4 µM
same,TGI,[52],48 µM
same,GI50,[53],0.397 µM
same,TGI,[53],23.3 µM
same,GI50,[54],0.354 µM
same,TGI,[54],14.4 µM
same,GI50,[59],2.9 µM
same,TGI,[59],16.9 µM
